Data on 13 molecules can be found in PubChem BioAssay (NCI).

Test systems include MDA-MB-231 breast; NCI-H522 lung; LOX IMVI melanoma; PC-3 prostate; HCT-116 colon; ACHN renal; UACC-62 melanoma; OVCAR-8 ovarian; HT29 colon; SF-268 CNS.
Holding throughout (experiment): NCI-60 cell line screen, 48 h

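96-well plates; 48 h exposure; 5 concentrations. Endpoints by linear interpolation between flanking doses. Not reached: highest tested concentration assigned. TGI marks complete inhibition of growth.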

As to `CCCCC1c2c([nH]c3ccccc23)C2C(=O)N(c3ccc(OC)cc3)C(=O)C2C1CCC` (stereo not given), the TGI in the assay on MDA-MB-231 breast was more than 10 µM; with NCI-H522 lung, more than 10 µM; with LOX IMVI melanoma it was more than 10 µM; in the assay on PC-3 prostate it was 7.46 µM; with HCT-116 colon, 7.56 µM; with ACHN renal, more than 10 µM. Besides, the TGI in the assay on UACC-62 melanoma is 6.77 µM; in the assay with OVCAR-8 ovarian it was 8.24 µM; in the assay with HT29 colon, 8.52 µM; in the assay on SF-268 CNS, more than 10 µM.
For `O=C1C[C@H](Sc2ccccc2)C2(OCCO2)[C@@H](Sc2ccccc2)C1`, the TGI in the assay with MDA-MB-231 breast turned out to be 5.78 µM; in the assay on NCI-H522 lung it was 1.81 µM; in the assay on LOX IMVI melanoma, 2.17 µM; in the assay with PC-3 prostate, 13.8 µM; with HCT-116 colon, 4.81 µM; with ACHN renal, 5.62 µM. The TGI in the assay on UACC-62 melanoma is 4.63 µM; with OVCAR-8 ovarian, 8.02 µM; in the assay on HT29 colon, 3.7 µM; in the assay on SF-268 CNS, 8.83 µM.
`COc1cc(C2CC(C)(Nc3ccccc3)Oc3cc4c(cc32)OCO4)cc(OC)c1OC` (stereo not given): the TGI with MDA-MB-231 breast was 4.34 µM; with NCI-H522 lung, 10.7 µM; in the assay with LOX IMVI melanoma, more than 100 µM; in the assay with PC-3 prostate, more than 100 µM; with HCT-116 colon, more than 51.2 µM; in the assay on ACHN renal, more than 90.7 µM. In addition, the TGI with UACC-62 melanoma was more than 100 µM; in the assay with OVCAR-8 ovarian, more than 100 µM; in the assay with HT29 colon it was 0.619 µM; in the assay with SF-268 CNS, more than 100 µM.
As for `COc1cc(C2SCC(=O)N2c2ccc(NC(=O)c3ccc(N4C(=O)CSC4c4cc(OC)c(OC)c(OC)c4)cc3)cc2)cc(OC)c1OC` (stereo not given), the TGI with MDA-MB-231 breast, in the assay on NCI-H522 lung, in the assay with LOX IMVI melanoma, in the assay on PC-3 prostate, in the assay on HCT-116 colon and in the assay with ACHN renal was more than 100 µM in each case. Moreover, the TGI with UACC-62 melanoma was 76.6 µM; in the assay with OVCAR-8 ovarian it was more than 100 µM; in the assay on HT29 colon it was more than 100 µM; in the assay on SF-268 CNS it was more than 100 µM.
With `Nc1c(-c2cccc3ccccc23)c2ccc([N+](=O)[O-])cc2c(=O)n1-c1nc2ccccc2s1`, the TGI in the assay on MDA-MB-231 breast was more than 47.5 µM; with NCI-H522 lung, 6.86 µM; in the assay on LOX IMVI melanoma it was more than 35.5 µM; with PC-3 prostate, more than 35.3 µM; in the assay on HCT-116 colon it was more than 40.2 µM; with ACHN renal, more than 100 µM. The TGI in the assay on UACC-62 melanoma is more than 100 µM; with OVCAR-8 ovarian, 10.5 µM; in the assay with HT29 colon, 19.9 µM; in the assay on SF-268 CNS, more than 31.7 µM.
Regarding `COC(=O)[C@]12CC[C@H]3CN(C(=O)OCc4ccccc4)[C@H]([C@H]31)[C@H](c1ccco1)N2S(=O)(=O)c1ccc(C)cc1`, the TGI is more than 100 µM in the assay with MDA-MB-231 breast; 45.7 µM with NCI-H522 lung; 32.3 µM in the assay with LOX IMVI melanoma; more than 100 µM with PC-3 prostate; 29.2 µM with HCT-116 colon; more than 100 µM with ACHN renal. Also, the TGI with UACC-62 melanoma was 36.1 µM; in the assay on OVCAR-8 ovarian, more than 100 µM; in the assay on HT29 colon it was 58.7 µM; in the assay with SF-268 CNS, 59.3 µM.
Consider `COc1ccc2cc3c4cc5c(cc4cc[n+]3cc2c1OC)OCO5`, for which the TGI was more than 100 µM with MDA-MB-231 breast; 21.5 µM in the assay with NCI-H522 lung; more than 100 µM in the assay on LOX IMVI melanoma; more than 100 µM in the assay on PC-3 prostate; more than 100 µM in the assay on HCT-116 colon; more than 100 µM in the assay on ACHN renal. The TGI is 27.9 µM in the assay with UACC-62 melanoma, more than 94.8 µM in the assay with OVCAR-8 ovarian, more than 100 µM in the assay with HT29 colon and 18.5 µM in the assay with SF-268 CNS.
Turning to `CC(=O)N/N=C1\NC(=O)C[C@H]2[C@@H]3CC=C4C[C@@H](OC(C)=O)CC[C@]4(C)[C@H]3CC[C@]12C`, the TGI with MDA-MB-231 breast was 39.3 µM; in the assay with NCI-H522 lung it was more than 100 µM; in the assay on LOX IMVI melanoma, more than 100 µM; with PC-3 prostate, more than 100 µM; with HCT-116 colon it was more than 100 µM; with ACHN renal, 52.7 µM. The TGI is 59 µM with UACC-62 melanoma, more than 100 µM with OVCAR-8 ovarian, more than 100 µM with HT29 colon and more than 100 µM in the assay with SF-268 CNS.
On to `CN(C)Cc1cc(C(=O)/C=C/c2ccc(O)cc2)cc(CN(C)C)c1O`, for which the TGI in the assay with MDA-MB-231 breast is 79 µM; in the assay on NCI-H522 lung, 75.6 µM; in the assay on LOX IMVI melanoma, more than 100 µM; in the assay with PC-3 prostate it was more than 100 µM; in the assay on HCT-116 colon, more than 100 µM; in the assay on ACHN renal, 53.3 µM. The TGI in the assay with UACC-62 melanoma, in the assay on OVCAR-8 ovarian, in the assay on HT29 colon and in the assay on SF-268 CNS was more than 100 µM each time.
Regarding `Cc1c(S(=O)(=O)/N=C(\N)Nc2ccc(Cl)cc2)sc2ccc(Cl)cc12`, the TGI in the assay with MDA-MB-231 breast stood at 32.9 µM; with NCI-H522 lung it was 30.1 µM; with LOX IMVI melanoma, 36.3 µM; with PC-3 prostate, 28.2 µM; with HCT-116 colon, 31.5 µM; in the assay with ACHN renal, 32.2 µM. Moreover, the TGI in the assay on UACC-62 melanoma was determined as 45.4 µM; in the assay with OVCAR-8 ovarian it was 38.9 µM; in the assay with HT29 colon, 38.8 µM; in the assay on SF-268 CNS, 32 µM.
As for `C(=N\NC1=NCCCN1)/c1ccc2ccccc2c1`, the TGI in the assay on MDA-MB-231 breast stood at 20 µM; in the assay with NCI-H522 lung it was 32.4 µM; in the assay on LOX IMVI melanoma it was 21 µM; in the assay with PC-3 prostate, 25.5 µM; with HCT-116 colon, 22.4 µM; in the assay with ACHN renal it was 22.2 µM. In addition, the TGI was determined as 30 µM in the assay on UACC-62 melanoma, 29.3 µM with OVCAR-8 ovarian, 23 µM in the assay with HT29 colon and 30.2 µM with SF-268 CNS.
Consider `C/C(CC1C2CCCC1C2)=N\NC(N)=O` (stereo not given), for which the TGI in the assay with MDA-MB-231 breast, with NCI-H522 lung, in the assay with LOX IMVI melanoma, in the assay with PC-3 prostate, in the assay on HCT-116 colon and with ACHN renal was more than 100 µM throughout. In addition, the TGI in the assay with UACC-62 melanoma, in the assay on OVCAR-8 ovarian, in the assay with HT29 colon and with SF-268 CNS was more than 100 µM in each case.
As to `CN(C)C(=S)S`, the TGI in the assay with MDA-MB-231 breast is more than 100 µM; with NCI-H522 lung, more than 20.4 µM; in the assay on LOX IMVI melanoma it was more than 100 µM; with PC-3 prostate it was more than 100 µM; in the assay with HCT-116 colon, more than 59.9 µM; in the assay on ACHN renal it was more than 100 µM. For the same molecule, the TGI with UACC-62 melanoma, in the assay on OVCAR-8 ovarian, with HT29 colon and in the assay on SF-268 CNS was more than 100 µM throughout.
